Experimental data as given in US11291670B2, “Therapeutic approaches for treating Alzheimer disease and related disorders through a modulation of angiogenesis” (PHARNEXT, priority 2008, dated 2022).

B1: BDNF: BDNF (50 ng/ml), positive control for neuroprotection (protein, UniProt P23560 19-247, looked up)
Neurotrophic factor BDNF …: APMKEANIRGQGGLAYPGVRTHGTLESVNGPKAGSRGLTSLADTFEHVIEELLDEDQKVRPNEENNKDADLYTSRVMLSSQVPLEPPLLFLLEEYKNYLDAANMSMRVRRHSDPARRGELSVCDSISEWVTAADKKTAVDMSGGTVTVLEKVPVSKGQLKQYFYETKCNPMGYTKEGCRGIDKRHWNSQCRTTQSYVRALTMDSKKRIGWRFIRIDTSCVCTLTIKRGR

Columns and labels:
Assay type in all cases: cell-based
[1] = system: rat primary cortical cells; experiment: human Aβ1-42 toxicity, LDH release in rat primary cortical neurons; conditions: Aβ1-42 10 μM 24 h, 1 hr pre-treatment; FIG. 3
Experimental: Primary rat cortical neurons are cultured as described previously.
Briefly, Aβ1-42 peptide was reconstituted in define culture medium at 40 μM (mother solution) and was slowly shaked at +37° C. for 3 days in dark. The control medium was prepared in the same conditions.
After 10 days of neuron culture, drug was solved in culture medium (+0.1% DMSO) and then pre-incubated with neurons for 1 hour before the Aβ1-42 application (in a final volume per culture well of 100 μl). One hour after drug incubation, 100 μl of Aβ1-42 peptide was added to a final concentration of 10 μM diluted in presence of drug, in order to avoid further drug dilutions. Cortical neurons were intoxicated for 24 hours. Three separate cultures were performed per condition, 6 wells per condition.
BDNF (50 ng/ml) and Estradiol-β (100 and 150 nM) were used as positive control and reference compounds respectively.
The following conditions were assessed: • 1 CONTROL PLAQUE: 12 wells/condition • Negative Control: medium alone+0.1% DMSO • Intoxication: amyloid-β1-42 (10 μM) for 24 h • Positive control: BDNF (50 ng/ml) 1 hr followed by amyloid-β1-42 (10 μM) for 24 h • Reference compound: Estradiol (150 nM) 1 hr followed by amyloid-β1-42 (10 μM) for 24 h. • DRUG PLATE: 6 wells/condition • Negative Control: medium alone+0.1% DMSO • Intoxication: amyloid-β1-42 (10 μM) for 24 h • Drug 1: Drug 1-1 hr followed by amyloid-β1-42(10 μM) for 24 h • Drug 2: Drug 2-1 hr followed by amyloid-β1-42(10 μM) for 24 h Lactate Dehydrogenase (LDH) Activity Assay
This colorimetric assay for the quantification of cell toxicity is based on the measurement of lactate dehydrogenase (LDH) activity released from the cytosol of dying cells into the supernatant.
All values are expressed as mean±s.e.mean of the 3 cultures (n=6 per condition). Statistic analyses were done on the different conditions (ANOVA followed by the Dunnett's test when it was allowed, Statviewi software version 5.0).

[2] = system: Human Brain Microvascular Endothelial Cells (HBMEC); experiment: human Aβ1-42 injury in HBMEC, total length of capillary network; conditions: for Effect on intoxication: total length of capillary network in beta-amyloid intoxicated HBMEC cultures: Aβ1-42 2.5 μM, combination versus each drug alone at the same concentrations, FIG. 4-6; for Prevention of Aβ1-42 intoxication in HBMEC (capillary network): drug pretreatment, FIG. 2B, 2C
Experimental: Human brain microvascular endothelial cerebral cells (HBMEC, ScienCell Ref: 1000, frozen at passage 10) were rapidly thawed in a waterbath at +37° C.
The control medium was prepared in the same conditions.
After 3 days, this human amyloid peptide was used on HBMEC at 2.5 μM diluted in control medium (optimal incubation time). The Aβ1-42 peptide was added 2 hours after HBMEC seeding on matrigel for 18 hours incubation.
Capillary Network Quantification
Per well, 2 pictures with 4× lens were taken using InCell Analyzer™ 1000 (GE Healthcare) in light transmission. All images were taken in the same conditions. Analysis of the angiogenesis networks was done using Developer software (GE Healthcare). The total length of capillary network was assessed.
All values are expressed as mean±s.e.mean of the 3 cultures (n=6 per condition). Statistic analyses were done on the different conditions performing an ANOVA followed by the Dunnett's test when it was allowed (Statview software version 5.0). The values (as %) inserted on the graphs show the amyloid toxicity evolution. Indeed, the amyloid toxicity was taken as the 100% and the test compound effect was calculated as a % of this amyloid toxicity.

[3] = system: rat endothelial cerebral cells; experiment: Aβ25-35 peptide toxicity, LDH release from rat endothelial cerebral cells; conditions: FIG. 1; for Protective effect against beta-amyloid peptide toxicity on LDH release (prevention of Aβ25-35 intoxication): Aβ25-35 30 μM, 3 days, drug added 1 hour before; for Spontaneous cell death in the culture medium: rat endothelial cerebral cells, LDH release
Experimental: Primo culture of rat endothelial cerebral cells (Vect-Horus SAS, Marseille) is cultivated on passage 0. At confluence, endothelial cells are dissociated with trypsin EDTA (Pan Biotech Ref: P10-023100). Cells are seeded at a density of 25 000 cells/well in 96 well-plates (wells are coated with 30 μl of type I rat collagen at 1.5 mg/ml, Vect-Horus SAS, Marseille) and are cultured in MCBD 131 medium (M−131-500, Invitrogen) supplemented with 1% of microvascular growth supplement (MVGS, S-005-25, Invitrogen). Cells are cultured at 37° C. in a humidified air (95%)/CO2(5%) atmosphere. Half of the medium is changed every other day with fresh medium. After 4 days, drugs are added to the cell culture medium, at different concentrations, solved in DMSO 0.1% or water.
Cells are then intoxicated with 30 μM of β-amyloid (25-35; Sigma) together with drugs in the same culture medium. Cells are then intoxicated during 3 days.
For each culture, after 3 days of intoxication, the supernatant is collected and analyzed with Cytotoxicity Detection Kit (LDH, Roche Applied Sciences). This colorimetric assay for the quantification of cell death is based on the measurement of lactate dehydrogenase (LDH) activity released from the cytosol of damaged cells into the supernatant. The optic density (DO) is assessed by spectrophotometer at 492 nm wavelength by a multiscan apparatus (Thermo, Ref Ascent).
Results presented in FIG. 1 are extracted from two independent cultures, 6 wells per condition. All values are expressed as mean±s.e.m. A bilateral Student's t test analysis is performed on raw data. Results are expressed in percentage of cell viability, compared to the control (vehicle).
Drugs are incubated with rat primary cerebral endothelial cells one hour before Aβ25-35 30 μM intoxication that lasts 3 days.
Three days after this incubation, LDH release in the culture medium is quantified, reflecting the level of cell death.

Molecule	Change of LDH release (Aβ1-42 amyloid injury) in rat primary cortical cells [1] [%]	Effect on intoxication: total length of capillary network in beta-amyloid intoxicated HBMEC cultures [2]	Prevention of Aβ1-42 intoxication in HBMEC (capillary network) [2]	Protective effect against beta-amyloid peptide toxicity on LDH release (prevention of Aβ25-35 intoxication) [3]	Spontaneous cell death in the culture medium [3]
NCC(CC(=O)O)c1ccc(Cl)cc1 (racemic) [Baclofen]	−86	no significant effect	significantly prevented		
NCC(CC(=O)O)c1ccc(Cl)cc1 (stereo not drawn) [Baclofen (−), Baclofen]				significantly prevented	
Cc1oncc1C(=O)Nc1ccc(C(F)(F)F)cc1 [Leflunomide]	−62			significantly prevented	decrease spontaneous cell death
C[C@@H]1CC(=O)NN=C1c1ccc(NN=C(C#N)C#N)cc1 [Levosimendan]		no significant effect			
Cc1noc(NS(=O)(=O)c2ccc(N)cc2)c1C [Sulfisoxazole]		no significant effect		significantly prevented	
CN(C/C=C/C#CC(C)(C)C)Cc1cccc2ccccc12 [Terbinafine]		no significant effect	significantly prevented	significantly prevented	decrease spontaneous cell death
B1	−95				
